Earlier results in patent US8357388B2, “Drug depot implant designs and methods of implantation” (Warsaw Orthopedic, Inc., priority 2006, dated 2013).

System: PGE2 production
Details: in cell culture

COc1ccc2cc(CC(=O)O)ccc2c1 [6-methoxy-2-napthylacetic acid]
PGE2 production and local inflammation: suppress PGE2 production and local inflammation
